Experimental data as given in the supplement of paper PMC10627819.

What was measured:
[1] = system: S. aureus DSM 20231; experiment: fitness (endpoint OD595 vs no drug) (fraction); higher = more growth
In short: (§1)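 At 37 °C, bacteria in TSB, LB Lennox or CY were grown in 384-well plates from a starting OD595 of 0.01. OD595 was measured every 30 min for 14 h, with the first reading used as background. Fitness is the optical density at the switch to stationary phase as a fraction of the robust mean of no-drug control wells, capped at 1.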

[2] = system: S. aureus Newman; experiment: as above
In short: as §1

[3] = system: S. pneumoniae D39V; experiment: as above
In short: as §1

[4] = system: B. subtilis 168; experiment: Bliss interaction score (quartile over a dose matrix) (fitness difference); higher = more antagonism (negative = synergy)
In short: (§2)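 Growth was read as OD595 when cultures entered stationary phase, and each value was divided by the plate's robust no-drug mean and capped at 1. This normalised ratio is the fitness value, and fitness for each single drug came from the combination data. The Bliss score subtracts the expected fitness, taken as the product, from the observed fitness and is given as quartiles across technical, biological and donor/recipient replicates.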

[5] = system: S. aureus DSM 20231; experiment: as above
In short: as §2

[6] = system: S. aureus Newman; experiment: as above
In short: as §2

[7] = system: S. pneumoniae D39V; experiment: as above
In short: as §2
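Throughout, for Bliss interaction score (quartile over a dose matrix): first quartile when negative (synergy) and third quartile when positive (antagonism).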
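Throughout, for fitness (endpoint OD595 vs no drug): OD595 on entry to stationary phase over no-drug wells; at most 1.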

CC1(C)S[C@@H]2[C@H](NC(=O)[C@H](N)c3ccc(O)cc3)C(=O)N2[C@H]1C(=O)O [Amoxicillin] + CN[C@H](CC(C)C)C(=O)N[C@H]1C(=O)N[C@@H](CC(N)=O)C(=O)N[C@H]2C(=O)N[C@H]3C(=O)N[C@H](C(=O)N[C@H](C(=O)O)c4cc(O)cc(O)c4-c4cc3ccc4O)[C@H](O)c3ccc(c(Cl)c3)Oc3cc2cc(c3O[C@@H]2O[C@H](CO)[C@@H](O)[C@H](O)[C@H]2O[C@H]2C[C@](C)(N)[C@H](O)[C@H](C)O2)Oc2ccc(cc2Cl)[C@H]1O [Vancomycin]
Conditions	fitness
[1], first compound 0.0625 µg/mL, partner 0.1875 µg/mL	0.605
[1], first compound 0.0625 µg/mL, partner 0.375 µg/mL	0.667
[1], first compound 0.125 µg/mL, partner 0.1875 µg/mL	0.397
[1], first compound 0.125 µg/mL, partner 0.375 µg/mL	0.452
[1], first compound 0.25 µg/mL, partner 0.1875 µg/mL	0.125
[1], first compound 0.25 µg/mL, partner 0.375 µg/mL	0.15
[1], first compound 0.25 µg/mL, partner 0.75 µg/mL	0.176
[1], first compound 0.5 µg/mL, partner 0.1875 µg/mL	0.0104
[1], first compound 0.5 µg/mL, partner 0.375 µg/mL	0.0135
[1], first compound 0.5 µg/mL, partner 0.75 µg/mL	0.0165
[2], first compound 0.0625 µg/mL, partner 0.1875 µg/mL	0.916
[2], first compound 0.0625 µg/mL, partner 0.375 µg/mL	0.914
[2], first compound 0.0625 µg/mL, partner 0.75 µg/mL	0.879
[2], first compound 0.125 µg/mL, partner 0.1875 µg/mL	0.887
[2], first compound 0.125 µg/mL, partner 0.375 µg/mL	0.875
[2], first compound 0.125 µg/mL, partner 0.75 µg/mL	0.877
[2], first compound 0.25 µg/mL, partner 0.1875 µg/mL	0.89
[2], first compound 0.25 µg/mL, partner 0.375 µg/mL	0.866
[2], first compound 0.25 µg/mL, partner 0.75 µg/mL	0.811
[3], first compound 0.0008 µg/mL, partner 0.03125 µg/mL	0.988
[3], first compound 0.0008 µg/mL, partner 0.0625 µg/mL	0.871
[3], first compound 0.0008 µg/mL, partner 0.125 µg/mL	0.894
[3], first compound 0.0015 µg/mL, partner 0.03125 µg/mL	0.977
[3], first compound 0.0015 µg/mL, partner 0.0625 µg/mL	0.852
[3], first compound 0.0015 µg/mL, partner 0.125 µg/mL	0.913
[3], first compound 0.0015 µg/mL, partner 0.25 µg/mL	0.869
[3], first compound 0.0015 µg/mL, partner 0.5 µg/mL	0.299
[3], first compound 0.003 µg/mL, partner 0.03125 µg/mL	0.861
[3], first compound 0.003 µg/mL, partner 0.0625 µg/mL	0.762
[3], first compound 0.003 µg/mL, partner 0.125 µg/mL	0.783
[3], first compound 0.003 µg/mL, partner 0.25 µg/mL	0.742
[3], first compound 0.003 µg/mL, partner 0.5 µg/mL	0.289

fitness, [3], one replicate
Conditions	partner 0.125 µg/mL	partner 0.25 µg/mL	partner 0.5 µg/mL
first compound 0.0008 µg/mL	–	0.928	0.33
first compound 0.006 µg/mL	0.234	0.13	0.0321

Conditions	Bliss interaction score
[4]	-0.0442
[5]	0.074
[6]	0.0681
[7]	0.101

CC1(C)S[C@@H]2[C@H](NC(=O)[C@H](N)c3ccc(O)cc3)C(=O)N2[C@H]1C(=O)O [Amoxicillin] + CO/N=C(\C(=O)N[C@@H]1C(=O)N2C(C(=O)O)=C(COC(C)=O)CS[C@H]12)c1csc(N)n1 [Cefotaxime]
fitness
Conditions	first compound 0.0008 µg/mL	first compound 0.0015 µg/mL	first compound 0.003 µg/mL	first compound 0.0625 µg/mL	first compound 0.125 µg/mL	first compound 0.25 µg/mL
[1], partner 0.039 µg/mL	–	–	–	0.465	0.283	0.128
[1], partner 0.078 µg/mL	–	–	–	0.47	0.403	0.103
[1], partner 0.156 µg/mL	–	–	–	0.464	0.221	0.0332
[1], partner 0.312 µg/mL	–	–	–	0.456	0.0746	0.0409
[2], partner 0.078 µg/mL	–	–	–	0.728	0.711	0.626
[2], partner 0.156 µg/mL	–	–	–	0.575	0.551	0.51
[2], partner 0.312 µg/mL	–	–	–	0.327	0.156	0.159
[2], partner 0.625 µg/mL	–	–	–	0.191	0.0751	0.13
[2], partner 1.25 µg/mL	–	–	–	0.0345	0.0453	0.0376
[2], partner 2.5 µg/mL	–	–	–	0.0349	0.0311	0.0239
[3], partner 0.0018 µg/mL	0.993	0.998	0.977	–	–	–
[3], partner 0.0035 µg/mL	0.986	0.967	0.889	–	–	–
[3], partner 0.007 µg/mL	0.882	0.882	0.762	–	–	–

one replicate
Conditions	fitness
[1], first compound 0.5 µg/mL, partner 0.039 µg/mL	0.0334
[1], first compound 0.5 µg/mL, partner 0.078 µg/mL	0.0321
[1], first compound 0.5 µg/mL, partner 0.156 µg/mL	0.0325
[1], first compound 0.5 µg/mL, partner 0.312 µg/mL	0.0506
[2], first compound 0.0625 µg/mL, partner 0.039 µg/mL	0.709
[2], first compound 0.125 µg/mL, partner 0.039 µg/mL	0.736
[2], first compound 0.25 µg/mL, partner 0.039 µg/mL	0.749
[3], first compound 0.006 µg/mL, partner 0.0018 µg/mL	0.457
[3], first compound 0.006 µg/mL, partner 0.0035 µg/mL	0.344
[3], first compound 0.006 µg/mL, partner 0.007 µg/mL	0.176

Conditions	Bliss interaction score
[4]	0.0789
[5]	-0.14
[6]	-0.0401
[7]	-0.0441

CC1(C)S[C@@H]2[C@H](NC(=O)[C@H](N)c3ccc(O)cc3)C(=O)N2[C@H]1C(=O)O [Amoxicillin] + CO/N=C(\C(=O)N[C@@H]1C(=O)N2C(C(=O)[O-])=C(C[N+]3(C)CCCC3)CS[C@H]12)c1csc(N)n1 [Cefepime]
Conditions	fitness
[1], first compound 0.0625 µg/mL, partner 0.125 µg/mL	0.566
[1], first compound 0.0625 µg/mL, partner 0.25 µg/mL	0.553
[1], first compound 0.0625 µg/mL, partner 0.5 µg/mL	0.499
[1], first compound 0.125 µg/mL, partner 0.125 µg/mL	0.393
[1], first compound 0.125 µg/mL, partner 0.25 µg/mL	0.477
[1], first compound 0.25 µg/mL, partner 0.125 µg/mL	0.307
[1], first compound 0.25 µg/mL, partner 0.25 µg/mL	0.195
[1], first compound 0.25 µg/mL, partner 0.5 µg/mL	0.0559
[1], first compound 0.5 µg/mL, partner 0.125 µg/mL	0
[1], first compound 0.5 µg/mL, partner 0.25 µg/mL	0.0413
[1], first compound 0.5 µg/mL, partner 0.5 µg/mL	0.0026
[2], first compound 0.0625 µg/mL, partner 0.125 µg/mL	0.829
[2], first compound 0.0625 µg/mL, partner 0.25 µg/mL	0.792
[2], first compound 0.0625 µg/mL, partner 0.5 µg/mL	0.707
[2], first compound 0.125 µg/mL, partner 0.125 µg/mL	0.906
[2], first compound 0.125 µg/mL, partner 0.25 µg/mL	0.788
[2], first compound 0.125 µg/mL, partner 0.5 µg/mL	0.736
[2], first compound 0.25 µg/mL, partner 0.125 µg/mL	0.851
[2], first compound 0.25 µg/mL, partner 0.25 µg/mL	0.725
[2], first compound 0.25 µg/mL, partner 0.5 µg/mL	0.753
[3], first compound 0.0008 µg/mL, partner 0.007 µg/mL	0.977
[3], first compound 0.0008 µg/mL, partner 0.014 µg/mL	0.982
[3], first compound 0.0008 µg/mL, partner 0.028 µg/mL	0.849
[3], first compound 0.0015 µg/mL, partner 0.007 µg/mL	0.989
[3], first compound 0.0015 µg/mL, partner 0.0078 µg/mL	≥ 1
[3], first compound 0.0015 µg/mL, partner 0.014 µg/mL	0.959
[3], first compound 0.0015 µg/mL, partner 0.0155 µg/mL	≥ 1
[3], first compound 0.0015 µg/mL, partner 0.028 µg/mL	0.82
[3], first compound 0.0015 µg/mL, partner 0.031 µg/mL	0.792
[3], first compound 0.003 µg/mL, partner 0.007 µg/mL	0.943
[3], first compound 0.003 µg/mL, partner 0.0078 µg/mL	≥ 1
[3], first compound 0.003 µg/mL, partner 0.014 µg/mL	0.942
[3], first compound 0.003 µg/mL, partner 0.0155 µg/mL	0.907
[3], first compound 0.003 µg/mL, partner 0.028 µg/mL	0.813
[3], first compound 0.003 µg/mL, partner 0.031 µg/mL	0.499

fitness, [3], one replicate
Conditions	partner 0.0078 µg/mL	partner 0.0155 µg/mL	partner 0.031 µg/mL
first compound 0.0008 µg/mL	≥ 1	≥ 1	0.811
first compound 0.006 µg/mL	0.484	0.384	0.103

Conditions	Bliss interaction score
[4]	0.0811
[5]	0.0643
[6]	-0.0522
[7]	-0.0542
